# Data: US4161523A, “Rosamicin esters, acid addition salts and methods for production thereof” (priority 1974, dated 1979)
# Counter-ions that a name gives are not always drawn. Like-named read-outs stand apart in the source and are kept apart here.
# How the values were obtained:
# [1] = test system: Bacillus subtilis ATCC 6633; assay: Cylinder cup assay (bioassay potency); type: cell-based; conditions: for potency (bioassay): reference standard assigned 1000 mcg/mg
# Protocol: The assay technique employed is a cylinder cup assay using Bacillus subtilis ATCC 6633 as the test organism.
# The physical conditions of the assay consist of a base layer of 21 ml. and a seed layer of 4 ml. of Antibiotic Medium No. 5. A standard curve is plotted using the following concentrations of antibiotic ([…]) in 0.1 M phosphate buffer (pH 8.0): 0.64, 0.8, 1.0, 1.25, and 1.56. […] The test procedure and the test medium is substantially that described for erythromycin in Assay Methods of Antibiotics, D. C. Grove and W. A. Randall, Medical Encyclopedia Inc., New York, New York (1955) pp. 96-103.
# chymotrypsin = assay: Stability to chymotrypsin; type: in vitro ADME; conditions: chymotrypsin 1 mg./ml. pH 8, 37° C., 24 hours; disc assay E. coli and S. aureus
# Protocol: (§1) Antiobiotic 67-694 has been tested for stability against trypsin, chymotrypsin, pepsin, and α-amylase. Solutions of the enzymes were prepared at 1 mg./ml. in McIlvaines buffers at the optimal pH for the enzyme (i.e. trypsin and chymotrypsin pH 8; pepsin, pH 2.2; and α-amylase pH 4). Two hundred (200) mcg. of antibiotic was dissolved in 0.5 ml. of water, mixed with 0.5 ml. of enzyme solution and incubated at 37° C. for 24 hours. The solutions were disc assayed against Escherichia coli and Staphylococcus aureus after 0, 1, 2.5 and 24 hours incubation.
# Proteus sp. = assay: In vitro activity, tube dilution (MIC), Proteus sp.; type: cell-based; conditions: 3 strains; yeast beef broth pH 7.4, 18 h, 37° C.; read-out: MIC (Minimal Inhibitory Concentration), range
# Protocol: (§2) The in vitro activity of Antibiotic 67-694 is ascertained by conventional tube dilution procedures using yeast beef broth medium at pH 7.4. The tubes are incubated for 18 hours at 37° C. prior to being observed.
# Solubility = type: physicochemical; conditions: U.S. Pharmacopea, 17th revision
# Excerpt: ^a) According to U.S. Pharmacopea, 17th revision (1965) pg. 8
# Diplococcus Pneumoniae = assay: In vitro activity, tube dilution (MIC), Diplococcus Pneumoniae; type: cell-based; conditions: 3 strains; yeast beef broth pH 7.4, 18 h, 37° C.; read-out: MIC (Minimal Inhibitory Concentration), range
# Protocol: as §2
# Escherichia coli = assay: In vitro activity, tube dilution (MIC), Escherichia coli; type: cell-based; conditions: 3 strains; yeast beef broth pH 7.4, 18 h, 37° C.; read-out: MIC (Minimal Inhibitory Concentration), range
# Protocol: as §2
# Klebsiella pneumoniae = assay: In vitro activity, tube dilution (MIC), Klebsiella pneumoniae; type: cell-based; conditions: 4 strains; yeast beef broth pH 7.4, 18 h, 37° C.; read-out: MIC (Minimal Inhibitory Concentration), range
# Protocol: as §2
# Pseudomonas aeruginosa = assay: In vitro activity, tube dilution (MIC), Pseudomonas aeruginosa; type: cell-based; conditions: 4 strains; yeast beef broth pH 7.4, 18 h, 37° C.; read-out: MIC (Minimal Inhibitory Concentration), range
# Protocol: as §2
# [2] = test system: Salmonella schottmuelleri; assay: In vitro activity, tube dilution (MIC), Salmonella schottmuelleri; type: cell-based; conditions: 3 strains; yeast beef broth pH 7.4, 18 h, 37° C.; read-out: MIC (Minimal Inhibitory Concentration), range
# Protocol: as §2
# Enterococcus sp. = assay: In vitro activity, tube dilution (MIC), Enterococcus sp.; type: cell-based; conditions: 2 strains; yeast beef broth pH 7.4, 18 h, 37° C.; read-out: MIC (Minimal Inhibitory Concentration), range
# Protocol: as §2
# α-amylase = assay: Stability to α-amylase; type: in vitro ADME; conditions: α-amylase 1 mg./ml. pH 4, 37° C., 24 hours; disc assay E. coli and S. aureus
# Protocol: as §1
# Streptococcus pyogenes C = assay: Protective activity in mice, Streptococcus pyogenes C infection; type: in vivo, male CF-1 (Carworth Farms) mice; conditions: two doses, survival 48 hours after infection, read-out: PD50
# Protocol: (§3) The protective activity and the acute toxicity of Antibiotic 67-694 is tested in male CF-1 (Carworth Farms) mice weighing approximately 20 gms. each. For protection, the antibiotic is given as a suspension or a solution in an aqueous vehicle containing 0.5% carboxy methyl cellulose (CMC) in two doses; one shortly before and one 4 hours after intraperitoneal infection with the bacteria. Infected and non-treated mice (controls) generally die within 18 hours. Survival rate in the treated group is determined 48 hours after infection.
# (§4) The acute toxicity of Antibiotic 67-694 is measured in the standard manner by administering the antibiotic by a variety of routes and determining the LD50 by standard procedures. The results of in vivo tests using a representative gram-positive and a representative gram negative organism are set forth in Tables X and Xi below: […]
# gram-positive bacteria = assay: Antibacterial activity, general statements; type: cell-based
# Protocol: as §2
# [3] = U.S. Pat. No. 3,767,793, cited from earlier work
# Streptococcus pyogenes = assay: In vitro activity, tube dilution (MIC), Streptococcus pyogenes; type: cell-based; conditions: 7 strains; yeast beef broth pH 7.4, 18 h, 37° C.; read-out: MIC (Minimal Inhibitory Concentration), range
# Protocol: as §2
# [4] = test system: Staphylococcus aureus gray; assay: Protective activity in mice, Staphylococcus aureus gray infection; type: in vivo, male CF-1 (Carworth Farms) mice; conditions: two doses, survival 48 hours after infection, read-out: PD50
# Protocol: as §3, §4
# [5] = in 66% dimethylformamide; data from U.S. Pat. No. 3,767,793; cited from earlier work
# Acute toxicity in mice = assay: Acute toxicity in mice; parameters: species or system male CF-1 (Carworth Farms) mice; conditions: mouse, in vivo
# Protocol: as §3, §4
# Staphylococcus aureus = assay: In vitro activity, tube dilution (MIC), Staphylococcus aureus; type: cell-based; conditions: 6 strains; yeast beef broth pH 7.4, 18 h, 37° C.; read-out: MIC (Minimal Inhibitory Concentration), range
# Protocol: as §2
# Aerobacter aerogenes = assay: In vitro activity, tube dilution (MIC), Aerobacter aerogenes; type: cell-based; conditions: 3 strains; yeast beef broth pH 7.4, 18 h, 37° C.; read-out: MIC (Minimal Inhibitory Concentration), range
# Protocol: as §2
# trypsin = assay: Stability to trypsin; type: in vitro ADME; conditions: trypsin 1 mg./ml. pH 8, 37° C., 24 hours; disc assay E. coli and S. aureus
# Protocol: as §1
# pepsin = assay: Stability to pepsin; type: in vitro ADME; conditions: pepsin 1 mg./ml. pH 2.2, 37° C., 24 hours; disc assay E. coli and S. aureus
# Protocol: as §1
# pKa = type: physicochemical
smiles,measurement,setting,value
CCC(=O)OC1C(OC2C(CC=O)CC(C)C(=O)C=CC3(C)OC3C(C)C(CC)OC(=O)CC(O)C2C)OC(C)CC1N(C)C (centres unmarked) [Antibiotic 67-694 2'-Propionate Phosphate Salt],potency (bioassay),[1]; Phosphate Salt,915 µg/mg
"CCCCCCCCCCCCCCCCCC(=O)OC1C(OC2C(CC=O)CC(C)C(=O)C=CC3(C)OC3C(C)C(CC)OC(=O)CC(O)C2C)OC(C)CC1N(C)C (centres unmarked) [Antibiotic 67-694 2'-stearate, Antibiotic 67-694 2'-Stearate]",potency (bioassay),[1],585 µg/mg
CCC1OC(=O)CC(O)C(C)C(OC2OC(C)CC(N(C)C)C2O)C(CC=O)CC(C)C(=O)C=CC2(C)OC2C1C (centres unmarked) [Antibiotic 67-694],Stability to enzymes: loss in activity,chymotrypsin,no substantial loss in activity
same,MIC,Proteus sp.,0.3 µg/mL
same,Solubility,Solubility; Acetone,Very soluble
same,Solubility,Solubility; Benzene,Very soluble
same,Solubility,Solubility; Chloroform,Very soluble
same,Solubility,Solubility; Ether,Sparingly soluble
same,Solubility,Solubility; Methanol,Very soluble
same,Solubility,Solubility; Water,Slightly soluble
same,MIC,Diplococcus Pneumoniae,0.03 to 0.08 µg/mL
same,MIC,Escherichia coli,3 µg/mL
same,potency (assaying units per mg),"[1]; purified by silicic acid column, Example 4","about 1,000 units per mg"
same,MIC,Klebsiella pneumoniae,0.3 to 3 µg/mL
same,MIC,Pseudomonas aeruginosa,0.75 to 3 µg/mL
same,MIC,[2],0.3 to 3 µg/mL
same,MIC,Enterococcus sp.,0.03 µg/mL
same,Stability to enzymes: loss in activity,α-amylase,no substantial loss in activity
same,ED50,Streptococcus pyogenes C; Oral,200 mg/kg
same,ED50,"Streptococcus pyogenes C; sc, Subcutaneous",50 mg/kg
same,antibacterial activity / spectrum (in words),gram-positive bacteria,broad antibacterial spectrum in vitro with a greater effect upon gram-positive bacteria
same,Solubilities,"[3]; benzene, chloroform, ethyl acetate, dimethylformamide, ethanol or an aqueous acid solution",Soluble
same,Solubilities,"[3]; petroleum ether, n-hexane or a neutral water",Insoluble
same,MIC,Streptococcus pyogenes,0.75 to 3 µg/mL
same,ED50,[4]; oral,200 mg/kg
same,ED50,"[4]; sc, Subcutaneous",50 mg/kg
same,pKa,[5],8.4
same,LD50,"Acute toxicity in mice; ip, Intraperitoneal",350 mg/kg
same,LD50,"Acute toxicity in mice; sc, Subcutaneous",625 mg/kg
same,LD50,Acute toxicity in mice; Intravenous,155 mg/kg
same,MIC,Staphylococcus aureus,0.03 to 3 µg/mL
same,MIC,Aerobacter aerogenes,0.75 to 7.5 µg/mL
same,Stability to enzymes: loss in activity,trypsin,no substantial loss in activity
same,Stability to enzymes: loss in activity,pepsin,no substantial loss in activity
same,pKa,pKa,8.7
